Laboratory results taken from publication PMC8832507 (Molecular cancer therapeutics, 2021).
Where a SMILES comes first, the peptide text is derived from it. [ ]: non-standard residue; d: D form. The star is where a group is joined. Dolaproine = CO[C@@H]([C@@H]1CCCN1)[C@@H](C)C(=O)O; Dil = CC[C@H](C)[C@H](NC)[C@@H](CC(=O)O)OC; X1 = C[C@@H](N*)[C@@H](O)c1ccccc1; NMeV = CN[C@H](C(=O)O)C(C)C

How the values were obtained:
HCC1954 cells = assay: Cytotoxicity; format: cell-based; conditions: for IC50: read-out: Free payload IC50
tumor spheroids = assay: Tumor spheroid pharmacodynamic marker; format: cell-based; conditions: for Bystander penetration in spheroids by pH3 PD signal (in words): 25 nM AF680-ADC or AF680-trastuzumab, 24-48 hours; for Bystander penetration in spheroids by γH2A.X PD signal (in words): 24-72 hours
PAMPA permeability assay = conditions: free payload
[1] = system: HCC1954 (Ag+) and MDA-MB-468 (Ag−) co-culture; assay: Bystander co-culture assay; format: cell-based
MDA-MB-468 cells = assay: Cytotoxicity; format: cell-based; conditions: for IC50: read-out: Free payload IC50, MDA-MB-468 cells

In the case of `CC[C@H](C)[C@@H]([C@@H](CC(=O)N1CCC[C@H]1[C@H](OC)[C@@H](C)C(=O)N[C@H](C)[C@@H](O)c1ccccc1)OC)N(C)C(=O)[C@@H](NC(=O)[C@@H](NC)C(C)C)C(C)C` [MMAE] (H-[NMeV]V[Dil][Dolaproine]-X1), the “Free payload IC50, fold more potent than either Ahx-maytansine or Lys-SMCC-DM1” value (HCC1954 cells) is reported as “over 100 fold”, the “Bystander penetration in spheroids by pH3 PD signal (in words)” value (tumor spheroids) is reported as “pH3 signal throughout the spheroid at 48 hours” and the “PAMPA permeability, fold higher than either Ahx-maytansine or Lys-SMCC-DM1” value (PAMPA permeability assay) is reported as about 10 fold.

In the case of calicheamicin G [CaliG], the “Bystander penetration in spheroids by γH2A.X PD signal (in words)” value (tumor spheroids; 25 nM AF680-ADC) is reported as “negligible”.

For Ahx-maytansine, the “Bystander penetration in spheroids by pH3 PD signal (in words)” value (tumor spheroids) was “detectable but localized bystander cell death”.

In the case of `CC[C@@]1(O)C(=O)OCc2c1cc1n(c2=O)Cc2c-1nc1cc(F)c(C)c3c1c2[C@@H](N)CC3` [exatecan], the “Bystander efficiency in modified co-culture (in words)” value ([1]; fixed number of Ag− cells, increasing number of Ag+ cells, fixed ADC concentration) is reported as “more efficient”, the “Bystander penetration in spheroids by γH2A.X PD signal (in words)” value (tumor spheroids; 25 nM AF680-ADC) is reported as “greatest PD signal at the spheroid center” and the “PAMPA permeability, fold higher than DXd” value (PAMPA permeability assay) is reported as ~ 2 fold. For the same molecule, the “PAMPA permeability, fold higher than SN-38” value (PAMPA permeability assay) was ~ 5 fold.

In the case of T-DM1, the “Ag+ cell death in co-culture (in words)” value ([1]; 1 nM ADC, 6 days) is reported as “complete Ag+ cell death”, the “Ag− cell bystander toxicity in co-culture (in words)” value ([1]; 1 nM ADC, 6 days, varying % Ag+ cells) is reported as “no Ag− toxicity even at a 90% Ag+ cell percentage” and the “Distance from spheroid edge of directly targeted cells showing pH3 signal” value (tumor spheroids; 25 nM AF680-ADC) is reported as ~ 75 µm. For the same molecule, the “Bystander penetration in spheroids by pH3 PD signal (in words)” value (tumor spheroids) was “did not exhibit bystander killing even at 48 hours”.

In the case of `CC[C@@]1(O)C(=O)OCc2c1cc1n(c2=O)Cc2c-1nc1cc(F)c(C)c3c1c2[C@@H](NC(=O)CO)CC3` [DXd], the “Ag− cell death in co-culture” value ([1]; any concentration higher than 250 pM) is reported as 100%, the IC50 (HCC1954 cells) is reported as about 6.2 nM and the “Fold higher free payload sensitivity of MDA-MB-468 cells compared to HCC1954” value (MDA-MB-468 cells) is reported as 2–3 fold. For the same molecule, the IC50 (MDA-MB-468 cells) was about 2.3 nM.

For `CCc1c2c(nc3ccc(O)cc13)-c1cc3c(c(=O)n1C2)COC(=O)[C@]3(O)CC` [SN-38], the IC50 (HCC1954 cells) was about 1.8 nM, the “Bystander penetration in spheroids by γH2A.X PD signal (in words)” value (tumor spheroids; 25 nM AF680-ADC) was “not readily apparent” and the “Fold higher free payload sensitivity of MDA-MB-468 cells compared to HCC1954” value (MDA-MB-468 cells) was 2–3 fold. For the same molecule, the IC50 (MDA-MB-468 cells) was about 0.6 nM.

In the case of calicheamicin D [CaliD], the “Bystander penetration in spheroids by γH2A.X PD signal (in words)” value (tumor spheroids; 25 nM AF680-ADC) is reported as “greatest bystander cell killing” and the “PD response in spheroids with potency matched doses (in words)” value (tumor spheroids; T-CaliG 75nM, T-CaliD 1nM) is reported as “more efficient at reaching cells in the spheroid center”.
